Laboratory results reported in the kinase profiling compilation of Christmann-Franck et al. (2016).

How the values were obtained:
Experiment in all cases: radiometric filter-binding kinase assay
EEF2K (human) = EEF2K (human) (UniProt O00418)
MYLK (human) = MYLK (human) (UniProt Q15746)
GSK3B (human) = GSK3B (human) (UniProt P49841)
YES1 (human) = YES1 (human) (UniProt P07947)
SYK (human) = SYK (human) (UniProt P43405)
SRC (human) = SRC (human) (UniProt P12931)
FLT1 (human) = FLT1 (human) (UniProt P17948)
IGF1R (human) = IGF1R (human) (UniProt P08069)
MAPK9 (human) = MAPK9 (human) (UniProt P45984)
Sequence of MAPK9 (human) (P45984 whole entry, looked up): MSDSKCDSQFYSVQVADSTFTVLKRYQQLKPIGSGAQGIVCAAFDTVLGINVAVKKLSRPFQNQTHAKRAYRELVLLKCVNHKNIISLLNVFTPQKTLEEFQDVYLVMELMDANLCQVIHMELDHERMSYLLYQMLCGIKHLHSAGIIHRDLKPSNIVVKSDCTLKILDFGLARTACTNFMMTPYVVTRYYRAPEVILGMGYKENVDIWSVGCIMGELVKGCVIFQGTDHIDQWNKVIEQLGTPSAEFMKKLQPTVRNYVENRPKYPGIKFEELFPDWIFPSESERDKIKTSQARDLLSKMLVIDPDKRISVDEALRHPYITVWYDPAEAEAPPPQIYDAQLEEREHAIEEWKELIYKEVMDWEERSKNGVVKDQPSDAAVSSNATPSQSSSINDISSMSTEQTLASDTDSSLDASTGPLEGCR

CSNK1D (human) = CSNK1D (human) (UniProt P48730)
Sequence of CSNK1D (human) (P48730 whole entry, looked up): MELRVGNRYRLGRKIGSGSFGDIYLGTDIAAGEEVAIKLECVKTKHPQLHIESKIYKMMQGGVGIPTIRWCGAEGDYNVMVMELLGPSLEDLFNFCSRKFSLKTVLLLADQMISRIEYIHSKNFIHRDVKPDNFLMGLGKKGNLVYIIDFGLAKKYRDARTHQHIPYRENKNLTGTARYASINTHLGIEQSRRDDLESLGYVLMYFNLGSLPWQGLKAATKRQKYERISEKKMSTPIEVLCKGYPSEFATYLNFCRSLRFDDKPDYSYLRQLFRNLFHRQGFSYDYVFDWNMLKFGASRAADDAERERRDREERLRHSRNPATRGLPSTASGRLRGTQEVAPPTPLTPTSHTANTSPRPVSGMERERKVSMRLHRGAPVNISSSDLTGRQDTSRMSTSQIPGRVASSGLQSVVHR

PAK6 (human) = PAK6 (human) (UniProt Q9NQU5)
MAPK1 (human) = MAPK1 (human) (UniProt P28482)
HIPK2 (human) = HIPK2 (human) (UniProt Q9H2X6)
PKN2 (human) = PKN2 (human) (UniProt Q16513)
Sequence of PKN2 (human) (Q16513 whole entry, looked up): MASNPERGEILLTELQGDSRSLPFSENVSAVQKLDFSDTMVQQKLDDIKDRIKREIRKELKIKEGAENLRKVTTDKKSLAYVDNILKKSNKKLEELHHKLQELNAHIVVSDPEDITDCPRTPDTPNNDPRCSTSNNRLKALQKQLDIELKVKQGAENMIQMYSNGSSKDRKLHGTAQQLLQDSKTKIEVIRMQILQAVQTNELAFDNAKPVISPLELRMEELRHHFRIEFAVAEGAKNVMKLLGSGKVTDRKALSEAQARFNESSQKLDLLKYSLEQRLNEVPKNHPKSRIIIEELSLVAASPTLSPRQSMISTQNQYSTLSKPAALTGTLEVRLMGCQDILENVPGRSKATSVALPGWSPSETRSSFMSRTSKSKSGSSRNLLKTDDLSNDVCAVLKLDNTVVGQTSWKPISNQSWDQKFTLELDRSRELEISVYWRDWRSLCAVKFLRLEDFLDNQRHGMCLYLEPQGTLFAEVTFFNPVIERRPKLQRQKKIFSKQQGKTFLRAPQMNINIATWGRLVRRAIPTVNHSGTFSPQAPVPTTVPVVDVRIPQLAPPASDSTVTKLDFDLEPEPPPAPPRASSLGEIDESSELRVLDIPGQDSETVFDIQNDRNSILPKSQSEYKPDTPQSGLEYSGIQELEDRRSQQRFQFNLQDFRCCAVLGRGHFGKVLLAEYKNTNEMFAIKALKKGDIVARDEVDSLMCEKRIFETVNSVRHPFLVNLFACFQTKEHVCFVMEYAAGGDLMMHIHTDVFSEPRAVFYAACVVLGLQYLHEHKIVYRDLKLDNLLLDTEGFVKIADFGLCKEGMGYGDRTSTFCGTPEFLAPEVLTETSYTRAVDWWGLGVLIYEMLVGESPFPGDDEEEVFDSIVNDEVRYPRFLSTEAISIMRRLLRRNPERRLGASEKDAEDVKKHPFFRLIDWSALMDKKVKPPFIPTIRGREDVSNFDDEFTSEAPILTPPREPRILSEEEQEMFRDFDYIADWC

MELK (human) = MELK (human) (UniProt Q14680)
[1] = system: AKT2 (human), P31751 [S474D]
PRKCZ (human) = PRKCZ (human) (UniProt Q05513)
Sequence of PRKCZ (human) (Q05513 whole entry, looked up): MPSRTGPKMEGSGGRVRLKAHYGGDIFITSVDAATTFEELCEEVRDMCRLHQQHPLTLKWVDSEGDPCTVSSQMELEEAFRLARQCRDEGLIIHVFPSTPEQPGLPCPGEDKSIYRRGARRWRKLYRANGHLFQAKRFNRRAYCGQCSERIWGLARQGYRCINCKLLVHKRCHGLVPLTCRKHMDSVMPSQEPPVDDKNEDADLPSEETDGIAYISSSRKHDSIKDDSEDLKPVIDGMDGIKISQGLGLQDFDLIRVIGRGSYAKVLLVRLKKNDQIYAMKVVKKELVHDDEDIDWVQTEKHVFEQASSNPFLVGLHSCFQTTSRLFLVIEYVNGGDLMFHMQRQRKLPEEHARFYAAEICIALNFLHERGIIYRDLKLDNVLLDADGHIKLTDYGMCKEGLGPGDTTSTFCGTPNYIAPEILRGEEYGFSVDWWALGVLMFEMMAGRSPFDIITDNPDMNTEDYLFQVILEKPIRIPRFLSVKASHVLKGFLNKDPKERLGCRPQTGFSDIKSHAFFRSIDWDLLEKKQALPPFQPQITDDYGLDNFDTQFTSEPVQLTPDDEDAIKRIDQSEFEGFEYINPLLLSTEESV

CHEK1 (human) = CHEK1 (human) (UniProt O14757)
FGFR1 (human) = FGFR1 (human) (UniProt P11362)
MAPK13 (human) = MAPK13 (human) (UniProt O15264)

Sequence of YES1 (human) (P07947 whole entry, looked up): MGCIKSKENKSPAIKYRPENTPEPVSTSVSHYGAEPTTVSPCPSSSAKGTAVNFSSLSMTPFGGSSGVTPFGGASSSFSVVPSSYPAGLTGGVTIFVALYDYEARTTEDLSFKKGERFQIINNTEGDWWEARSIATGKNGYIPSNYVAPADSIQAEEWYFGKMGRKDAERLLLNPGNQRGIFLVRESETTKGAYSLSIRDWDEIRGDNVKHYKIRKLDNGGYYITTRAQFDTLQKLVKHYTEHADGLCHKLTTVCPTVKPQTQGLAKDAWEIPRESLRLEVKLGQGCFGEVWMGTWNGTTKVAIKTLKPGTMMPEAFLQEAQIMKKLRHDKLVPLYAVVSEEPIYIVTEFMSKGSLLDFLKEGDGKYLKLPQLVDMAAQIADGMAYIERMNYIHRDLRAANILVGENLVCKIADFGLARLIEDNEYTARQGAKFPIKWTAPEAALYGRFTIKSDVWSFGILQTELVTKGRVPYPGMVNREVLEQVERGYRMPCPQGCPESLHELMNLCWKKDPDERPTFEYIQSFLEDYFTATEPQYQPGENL
Sequence of MYLK (human) (Q15746 whole entry, looked up): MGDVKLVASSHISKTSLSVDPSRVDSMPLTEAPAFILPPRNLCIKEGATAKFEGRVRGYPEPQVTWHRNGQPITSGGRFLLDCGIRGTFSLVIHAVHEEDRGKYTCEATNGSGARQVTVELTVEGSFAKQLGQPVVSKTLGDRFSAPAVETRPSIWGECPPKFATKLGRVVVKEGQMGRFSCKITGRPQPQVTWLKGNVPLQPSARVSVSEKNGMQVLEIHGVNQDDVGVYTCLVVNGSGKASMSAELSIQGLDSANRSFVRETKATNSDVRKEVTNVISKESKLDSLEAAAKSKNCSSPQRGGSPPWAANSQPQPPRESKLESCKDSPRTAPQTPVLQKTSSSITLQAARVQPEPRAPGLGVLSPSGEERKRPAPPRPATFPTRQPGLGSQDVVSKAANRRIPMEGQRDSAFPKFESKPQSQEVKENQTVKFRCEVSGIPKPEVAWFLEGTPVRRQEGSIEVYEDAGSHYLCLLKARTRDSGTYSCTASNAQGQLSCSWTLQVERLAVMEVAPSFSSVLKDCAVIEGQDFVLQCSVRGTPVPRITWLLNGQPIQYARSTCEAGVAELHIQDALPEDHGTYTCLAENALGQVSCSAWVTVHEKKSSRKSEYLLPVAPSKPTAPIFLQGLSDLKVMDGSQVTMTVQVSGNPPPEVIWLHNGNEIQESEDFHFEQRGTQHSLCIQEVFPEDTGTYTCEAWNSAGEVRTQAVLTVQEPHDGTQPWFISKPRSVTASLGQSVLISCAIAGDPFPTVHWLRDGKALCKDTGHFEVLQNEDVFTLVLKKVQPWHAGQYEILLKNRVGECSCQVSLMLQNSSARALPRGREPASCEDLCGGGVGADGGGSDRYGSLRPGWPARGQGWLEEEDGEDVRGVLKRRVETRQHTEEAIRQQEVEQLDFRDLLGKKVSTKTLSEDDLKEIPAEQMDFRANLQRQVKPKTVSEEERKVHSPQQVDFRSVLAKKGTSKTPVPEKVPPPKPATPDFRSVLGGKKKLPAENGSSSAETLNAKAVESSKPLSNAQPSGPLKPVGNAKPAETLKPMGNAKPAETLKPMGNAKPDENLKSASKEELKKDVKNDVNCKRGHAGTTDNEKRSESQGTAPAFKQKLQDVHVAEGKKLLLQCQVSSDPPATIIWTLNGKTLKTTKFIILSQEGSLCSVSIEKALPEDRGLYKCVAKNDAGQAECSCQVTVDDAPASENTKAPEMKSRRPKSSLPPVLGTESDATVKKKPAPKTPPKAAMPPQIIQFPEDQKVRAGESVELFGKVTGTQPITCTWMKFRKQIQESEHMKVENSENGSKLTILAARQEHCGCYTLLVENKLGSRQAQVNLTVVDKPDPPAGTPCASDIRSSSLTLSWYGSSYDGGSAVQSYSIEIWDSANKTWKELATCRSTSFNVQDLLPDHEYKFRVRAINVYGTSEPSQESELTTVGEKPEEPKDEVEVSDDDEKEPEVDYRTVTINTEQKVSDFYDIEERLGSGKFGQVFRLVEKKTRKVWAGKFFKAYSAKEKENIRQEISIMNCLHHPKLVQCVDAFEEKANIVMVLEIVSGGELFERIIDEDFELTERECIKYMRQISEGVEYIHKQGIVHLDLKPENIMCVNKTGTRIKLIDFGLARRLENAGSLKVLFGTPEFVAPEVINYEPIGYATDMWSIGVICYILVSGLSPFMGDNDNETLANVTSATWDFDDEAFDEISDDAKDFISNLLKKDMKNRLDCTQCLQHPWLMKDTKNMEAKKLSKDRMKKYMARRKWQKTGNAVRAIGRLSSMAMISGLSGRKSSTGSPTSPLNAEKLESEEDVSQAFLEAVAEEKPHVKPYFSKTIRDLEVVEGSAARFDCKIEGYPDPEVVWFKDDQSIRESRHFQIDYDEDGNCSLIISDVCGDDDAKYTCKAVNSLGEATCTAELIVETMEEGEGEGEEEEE

A residual activity (EEF2K (human); compound 0.1 µM) of 102%, a residual activity (EEF2K (human); compound 1.0 µM) of 86% and a residual activity (EEF2K (human); compound 10.0 µM) of 116% were found for `NC(=O)Nc1ccc2c(c1)/C(=C/c1cc(-c3cccnc3)c[nH]1)C(=O)N2` in this work. It also gave a residual activity (MYLK (human); compound 0.1 µM) of 54%, a residual activity (MYLK (human); compound 1.0 µM) of 11% and a residual activity (MYLK (human); compound 10.0 µM) of 1%. For the same compound, the residual activity (GSK3B (human); compound 0.1 µM) was 11%, the residual activity (GSK3B (human); compound 1.0 µM) was 7% and the residual activity (GSK3B (human); compound 10.0 µM) was 3%. It also gave a residual activity (YES1 (human); compound 0.1 µM) of 32%, a residual activity (YES1 (human); compound 1.0 µM) of 8% and a residual activity (YES1 (human); compound 10.0 µM) of 3%. The residual activity (SYK (human); compound 1.0 µM) was 40%, the residual activity (SYK (human); compound 10.0 µM) was 7% and the residual activity (SRC (human); compound 0.1 µM) was 41%. It also gave a residual activity (SRC (human); compound 1.0 µM) of 7%, a residual activity (SRC (human); compound 10.0 µM) of 1% and a residual activity (FLT1 (human); compound 0.1 µM) of 7%. It also gave a residual activity (FLT1 (human); compound 1.0 µM) of 3%, a residual activity (FLT1 (human); compound 10.0 µM) of 1% and a residual activity (IGF1R (human); compound 1.0 µM) of 33%. The residual activity (IGF1R (human); compound 10.0 µM) was 1%, the residual activity (MAPK9 (human); compound 1.0 µM) was 43% and the residual activity (MAPK9 (human); compound 10.0 µM) was 17%. The residual activity (CSNK1D (human); compound 0.1 µM) was 90%, the residual activity (CSNK1D (human); compound 1.0 µM) was 59% and the residual activity (CSNK1D (human); compound 10.0 µM) was 20%. The residual activity (PAK6 (human); compound 0.1 µM) was 86%, the residual activity (PAK6 (human); compound 1.0 µM) was 77% and the residual activity (PAK6 (human); compound 10.0 µM) was 38%. For the same compound, the residual activity (MAPK1 (human); compound 0.1 µM) was 81%, the residual activity (MAPK1 (human); compound 1.0 µM) was 41% and the residual activity (MAPK1 (human); compound 10.0 µM) was 16%. The residual activity (HIPK2 (human); compound 0.1 µM) was 33%, the residual activity (HIPK2 (human); compound 1.0 µM) was 7% and the residual activity (HIPK2 (human); compound 10.0 µM) was 1%. For the same compound, the residual activity (PKN2 (human); compound 0.1 µM) was 25%, the residual activity (PKN2 (human); compound 1.0 µM) was 5% and the residual activity (PKN2 (human); compound 10.0 µM) was 6%. It also gave a residual activity (MELK (human); compound 0.1 µM) of 16%, a residual activity (MELK (human); compound 1.0 µM) of 3% and a residual activity (MELK (human); compound 10.0 µM) of 0%. The residual activity ([1]; compound 0.1 µM) was 88%, the residual activity ([1]; compound 1.0 µM) was 77% and the residual activity ([1]; compound 10.0 µM) was 36%. It also gave a residual activity (PRKCZ (human); compound 0.1 µM) of 85%, a residual activity (PRKCZ (human); compound 1.0 µM) of 66% and a residual activity (PRKCZ (human); compound 10.0 µM) of 21%. It also gave a residual activity (CHEK1 (human); compound 0.1 µM) of 85%, a residual activity (CHEK1 (human); compound 1.0 µM) of 4% and a residual activity (CHEK1 (human); compound 10.0 µM) of 1%. For the same compound, the residual activity (FGFR1 (human); compound 0.1 µM) was 17%, the residual activity (FGFR1 (human); compound 1.0 µM) was 2% and the residual activity (FGFR1 (human); compound 10.0 µM) was 1%. For the same compound, the residual activity (MAPK13 (human); compound 0.1 µM) was 85%, the residual activity (MAPK13 (human); compound 1.0 µM) was 62% and the residual activity (MAPK13 (human); compound 10.0 µM) was 22%.

A residual activity (EEF2K (human); compound 0.01 µM) of 101%, a residual activity (EEF2K (human); compound 0.1 µM) of 106% and a residual activity (MYLK (human); compound 0.001 µM) of 90% were found for `C/C(=C1/C(=O)Nc2ccc(NC(N)=O)cc21)c1ccc[nH]1` in this work. It also gave a residual activity (MYLK (human); compound 0.01 µM) of 89%, a residual activity (MYLK (human); compound 0.1 µM) of 65% and a residual activity (GSK3B (human); compound 0.01 µM) of 92%. It also gave a residual activity (GSK3B (human); compound 0.1 µM) of 49%, a residual activity (YES1 (human); compound 0.001 µM) of 77% and a residual activity (YES1 (human); compound 0.01 µM) of 60%. For the same compound, the residual activity (YES1 (human); compound 0.1 µM) was 42%, the residual activity (SYK (human); compound 0.001 µM) was 100% and the residual activity (SYK (human); compound 0.01 µM) was 104%. It also gave a residual activity (SYK (human); compound 0.1 µM) of 97%, a residual activity (SRC (human); compound 0.001 µM) of 84% and a residual activity (SRC (human); compound 0.01 µM) of 79%. It also gave a residual activity (SRC (human); compound 0.1 µM) of 71%, a residual activity (FLT1 (human); compound 0.001 µM) of 95% and a residual activity (FLT1 (human); compound 0.01 µM) of 50%. The residual activity (FLT1 (human); compound 0.1 µM) was 13%, the residual activity (IGF1R (human); compound 0.1 µM) was 94% and the residual activity (MAPK9 (human); compound 0.01 µM) was 123%. For the same compound, the residual activity (MAPK9 (human); compound 0.1 µM) was 118%, the residual activity (CSNK1D (human); compound 0.001 µM) was 94% and the residual activity (CSNK1D (human); compound 0.01 µM) was 94%. For the same compound, the residual activity (CSNK1D (human); compound 0.1 µM) was 89%, the residual activity (PAK6 (human); compound 0.001 µM) was 97% and the residual activity (PAK6 (human); compound 0.01 µM) was 102%. It also gave a residual activity (PAK6 (human); compound 0.1 µM) of 88%, a residual activity (MAPK1 (human); compound 0.001 µM) of 108% and a residual activity (MAPK1 (human); compound 0.01 µM) of 95%. It also gave a residual activity (MAPK1 (human); compound 0.1 µM) of 79%, a residual activity (HIPK2 (human); compound 0.001 µM) of 89% and a residual activity (HIPK2 (human); compound 0.01 µM) of 82%. It also gave a residual activity (HIPK2 (human); compound 0.1 µM) of 51%, a residual activity (PKN2 (human); compound 0.001 µM) of 67% and a residual activity (PKN2 (human); compound 0.01 µM) of 61%. For the same compound, the residual activity (PKN2 (human); compound 0.1 µM) was 36%, the residual activity (MELK (human); compound 0.001 µM) was 86% and the residual activity (MELK (human); compound 0.01 µM) was 47%. For the same compound, the residual activity (MELK (human); compound 0.1 µM) was 9%, the residual activity ([1]; compound 0.001 µM) was 79% and the residual activity ([1]; compound 0.01 µM) was 82%. The residual activity (PRKCZ (human); compound 0.001 µM) was 78%, the residual activity (PRKCZ (human); compound 0.01 µM) was 84% and the residual activity (PRKCZ (human); compound 0.1 µM) was 83%. It also gave a residual activity (CHEK1 (human); compound 0.001 µM) of 89%, a residual activity (CHEK1 (human); compound 0.1 µM) of 21% and a residual activity (FGFR1 (human); compound 0.001 µM) of 96%. It also gave a residual activity (FGFR1 (human); compound 0.01 µM) of 61%, a residual activity (FGFR1 (human); compound 0.1 µM) of 18% and a residual activity (MAPK13 (human); compound 0.001 µM) of 96%. For the same compound, the residual activity (MAPK13 (human); compound 0.01 µM) was 89% and the residual activity (MAPK13 (human); compound 0.1 µM) was 86%.
